This passage reports inhibition results from publication PMC13400319 (Chemmedchem, 2026).

Each structure is given as a SMILES string. Read-outs that look alike come from different tables or passages of the source.

The test deals with T1, Aβ42 (Homo sapiens, UniProt P05067).
T1 construct: amyloid beta (1–42) (Aβ42) self‐aggregation; purchased GenicBio Limited (Shanghai, China)
The experiment in a line: Inhibition of Aβ42 self-aggregation (Thioflavin T fluorescence). The format is biochemical. Particulars: read-out: Inhibition of Aβ42 self-aggregation, %.

T1 sequence (P05067 672-713 limits assumed): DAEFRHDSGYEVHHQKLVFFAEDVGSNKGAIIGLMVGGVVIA
Method: Inhibition of β-amyloid (1– 42) (Aβ42) self-aggregation
Inhibition of Aβ42 self-aggregation by test compounds was studied using the thioflavin T (ThT)
fluorescence method [8- 10] with minor modifications as described in detail in [11]. Lyophilized
HFIP- pretreated Aβ42 (GenicBio Limited (Shanghai, China), 1 mg) was dissolved in DMSO to
obtain a stable 500 μM solution.
pH 8.0 were incubated for 24 h at 37°C in the absence or presence of 100 μM test compounds.
Myricetin in the same concentration was used as reference. After incubation, 5 μM ThT in 50
mM glycine-NaOH buffer pH 8.5 was added, and the fluorescence was measured at 440 nm
Each assay was run in triplicate. The degree of
inhibition of Aβ42 self-aggregation by the studied compounds (%) was calculated by the
of inhibitor, respectively, after subtracting the fluorescence of respective blanks.

For the molecule `Nc1c2c(nc3c1CCC3)CCCC2` [Amiridine, amiridine], the inhibition (usually the change of the read-out against control, counted positive when it falls) at 100 µM (Aβ42 50 µM, compound 100 µM) amounted to 6.4 ± 0.5%.

As to `O=c1c(O)c(-c2cc(O)c(O)c(O)c2)oc2cc(O)cc(O)c12` [Myricetin], the inhibition at 100 µM turned out to be 74.7 ± 5.2%.
